Earlier results as cited in US11590241B2, “Nanoparticle conjugated synthetic opioid prodrugs and methods of their uses” (VIRGINIA COMMONWEALTH UNIVERSITY, priority 2016, dated 2023).

How the values were obtained:
[1] = extensive hepatic first-pass metabolism
[2] = target: T1, MOR (Homo sapiens, UniProt P35372); conditions: data from Li et al. 2009
T1 construct: expressed in transfected cells; host or cells: CHO (Chinese hamster ovary) cells, membrane preparation

[3] = tested on: mice; conditions: parent compound, earlier data
[4] = target: T1, MOR; conditions: read-out: Ki (nM) μ; [3H]naloxone; data from Li et al. 2009
[5] = tested on: morphine-pelleted mice; conditions: U.S. Pat. No. 8,980,908

T1 sequence (P35372 whole entry): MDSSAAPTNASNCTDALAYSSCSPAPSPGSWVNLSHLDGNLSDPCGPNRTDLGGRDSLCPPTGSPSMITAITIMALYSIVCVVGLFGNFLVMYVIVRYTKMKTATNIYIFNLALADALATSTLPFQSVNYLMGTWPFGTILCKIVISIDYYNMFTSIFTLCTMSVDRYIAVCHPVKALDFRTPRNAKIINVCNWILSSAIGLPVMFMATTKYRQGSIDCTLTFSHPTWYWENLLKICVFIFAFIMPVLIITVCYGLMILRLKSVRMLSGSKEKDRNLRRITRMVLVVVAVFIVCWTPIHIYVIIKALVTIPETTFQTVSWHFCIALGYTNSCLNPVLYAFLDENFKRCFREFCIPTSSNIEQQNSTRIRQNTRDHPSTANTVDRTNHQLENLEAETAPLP

| SMILES | oral bioavailability [1] | MOR [35S]GTPγS Binding % Emax of DAMGO [2] | EC50 ([2]; read-out: MOR [35S]GTPγS Binding EC50) | AD50, blocking the antinociceptive effect of morphine [3] | agonist activity (antinociception) [3] | Ki [4] | intestinal motility [5] |
| --- | --- | --- | --- | --- | --- | --- | --- |
| C=CCN1CC[C@]23c4c5ccc(O)c4O[C@H]2C(=O)CC[C@@]3(O)[C@H]1C5 [Naloxone] | ~2% |  |  |  |  |  |  |
| O=C(Cc1ccncc1)N[C@@H]1CC[C@@]2(O)[C@H]3Cc4ccc(O)c5c4[C@@]2(CCN3CC2CC2)[C@H]1O5 [NAP, 17-cyclopropylmethyl-3,14 β-dihydroxy-4,5 α-epoxy-6 β-[(4-pyridyl)acetamido]morphinan] |  | 22.7 ± 0.8% | 1140 ± 380 pM | 4.98 mg/kg | did not carry any significant agonist activity | 0.37 ± 0.07 nM | increase intestinal motility |
